Data as given in ChEMBL document CHEMBL1156824, “Physicochemical space for optimum oral bioavailability: contribution of human intestinal absorption and first-pass elimination” (J Med Chem, 2010).

Tests used:
Homo sapiens [1] = organism: Homo sapiens; experiment: Fraction escaping gut-wall elimination in human; conditions: in vivo
Homo sapiens [2] = experiment: Oral bioavailability in human; conditions: in vivo
Homo sapiens [3] = organism: Homo sapiens; experiment: Fraction escaping hepatic elimination in human; conditions: in vivo
Homo sapiens [4] = organism: Homo sapiens; experiment: Fraction absorbed in human; conditions: in vivo
Homo sapiens [5] = organism: Homo sapiens; experiment: Hepatic clearance in human; conditions: in vivo
Homo sapiens [6] = organism: Homo sapiens; conditions: in vivo
Homo sapiens [7] = organism: Homo sapiens; experiment: in vitro; conditions: plasma
[8] = (§1) Volume of distribution at steady state in human; conditions: in vivo
clinical [9] = conditions: human, in vivo
clinical [10] = conditions: human, in vivo; remark: listed apart in the source
Plasma = experiment: Fraction unbound in human plasma
Homo sapiens [11] = organism: Homo sapiens; experiment: as §1; conditions: in vivo

Molecule	Fg (Homo sapiens [1])	Fh (Homo sapiens [3])	CL (Homo sapiens [5]) [mL/min/kg]	CL renal (clinical [9]) [mL/min/kg]	also measured
COc1cc(Cc2cnc(N)nc2N)cc(OC)c1OC [TRIMETHOPRIM]	0.83	0.95	–	–	F_fraction (Homo sapiens [2]): 0.76; Fa (Homo sapiens [4]): 0.97
CCc1cccc2cc(C(O)CNC(C)(C)C)oc12 (stereo unspecified) [BUFURALOL]	0.7	0.61	8.9	–	F_fraction (Homo sapiens [2]): 0.43; CL_renal (Homo sapiens [6]): 0 mL/min/kg; fraction unbound (Homo sapiens [7]): 0.19; Fa (Homo sapiens [4]): 1
CCN1CCCC1CNC(=O)c1cc(S(N)(=O)=O)ccc1OC (stereo unspecified) [SULPIRIDE]	–	–	0.1	–	F_fraction (Homo sapiens [2]): 0.27; Vd [8]: 2.72 L/kg
O=C1NC(=O)C(c2ccccc2)(c2ccccc2)N1 [PHENYTOIN]	–	0.98	0.4	0.0074	clearance (clinical [10]): 0.37 mL/min/kg
O=C1C(O)=C([C@H]2CC[C@H](c3ccc(Cl)cc3)CC2)C(=O)c2ccccc21 [ATOVAQUONE]	–	–	0.2	–	Fu (Plasma): 0.001; Vd [8]: 0.6 L/kg
Nc1nc(O)c2ncn(COC(CO)CO)c2n1 [GANCICLOVIR]	–	–	0.5	–	F_fraction (Homo sapiens [2]): 0.09; Vd [8]: 1 L/kg
O=C(O)c1cc(/N=N/c2ccc(S(=O)(=O)Nc3ccccn3)cc2)ccc1O [SULFASALAZINE]	–	–	0.2	0.1	clearance (clinical [10]): 0.24 mL/min/kg
O=C(O)c1cc(/N=N/c2ccc(O)c(C(=O)O)c2)ccc1O [OLSALAZINE]	–	–	0.9	0.3	Vd [8]: 0.07 L/kg
COc1cc([C@@H]2c3cc4c(cc3[C@@H](O[C@@H]3O[C@@H]5CO[C@@H](C)O[C@H]5[C@H](O)[C@H]3O)[C@H]3COC(=O)[C@H]23)OCO4)cc(OC)c1O [ETOPOSIDE]	–	0.99	0.3	0.2	clearance (clinical [10]): 0.5 mL/min/kg
COc1ccc2c(c1)c(CC(=O)O)c(C)n2C(=O)c1ccc(Cl)cc1 [INDOMETHACIN]	–	–	1.1	–	Fu (Plasma): 0.01
CN1[C@@H]2C[C@@H](OC(=O)[C@H](CO)c3ccccc3)C[C@H]1[C@@H]1O[C@@H]12 [SCOPOLAMINE]	0.82	0.35	–	–	–
CNCCC=C1c2ccccc2CCc2ccccc21 [NORTRIPTYLINE]	0.89	0.57	9.8	–	F_fraction (Homo sapiens [2]): 0.51; Fa (Homo sapiens [4]): 1
Cc1cc(NS(=O)(=O)c2ccc(N)cc2)no1 [SULFAMETHOXAZOLE]	1.01	0.99	–	–	Fa (Homo sapiens [4]): 1
Cc1ncc2n1-c1ccc(Cl)cc1C(c1ccccc1F)=NC2 [MIDAZOLAM]	–	–	5.3	–	F_fraction (Homo sapiens [2]): 0.38; CL_renal (Homo sapiens [6]): 0 mL/min/kg
CO/N=C(\C(=O)N[C@@H]1C(=O)N2C(C(=O)O)=C(CSc3nc(=O)c(=O)[nH]n3C)CS[C@H]12)c1csc(N)n1 [CEFTRIAXONE]	–	–	0.1	0.1	Fu (Plasma): 0.052
O=C(O)c1cn(C2CC2)c2cc(N3CCNCC3)c(F)cc2c1=O [CIPROFLOXACIN]	0.98	0.94	–	–	Fa (Homo sapiens [4]): 0.75
CO/N=C(\C(=O)N[C@@H]1C(=O)N2C(C(=O)O)=C(C)CS[C@H]12)c1csc(N)n1	–	–	0.4	–	fraction unbound (Homo sapiens [7]): 0.78
CC(C(=O)O)c1ccc(C(=O)c2cccs2)cc1 (stereo unspecified) [SUPROFEN]	–	–	0.7	0.0357	Vd [8]: 0.04 L/kg
CN1C(C(=O)Nc2ccccn2)=C(O)c2sccc2S1(=O)=O [TENOXICAM]	1	1	0.0297	0.0003	F_fraction (Homo sapiens [2]): 1; Fa (Homo sapiens [4]): 1
CNC[C@H](O)CC12CCC(c3ccccc31)c1ccccc12 [LEVOPROTILINE]	–	–	12.1	0.2	clearance (clinical [10]): 12.3 mL/min/kg
CC(C)NCC(O)COc1ccc(CCOCC2CC2)cc1 (stereo unspecified) [BETAXOLOL]	1.01	0.88	2.7	–	F_fraction (Homo sapiens [2]): 0.89; Fa (Homo sapiens [4]): 1
CCCCc1oc2ccccc2c1C(=O)c1cc(I)c(OCCN(CC)CC)c(I)c1 [AMIODARONE]	0.71	0.92	–	–	Fa (Homo sapiens [4]): 1
Clc1ccc2nsnc2c1NC1=NCCN1 [TIZANIDINE]	0.39	0.54	10.7	0.3	F_fraction (Homo sapiens [2]): 0.21; Fa (Homo sapiens [4]): 1
CC(C)c1nc(CN(C)C(=O)N[C@H](C(=O)N[C@@H](Cc2ccccc2)C[C@H](O)[C@H](Cc2ccccc2)NC(=O)OCc2cncs2)C(C)C)cs1 [RITONAVIR]	–	–	1.2	0.042	clearance (clinical [10]): 1.2 mL/min/kg
C[C@@H]1[C@H](O)[C@@H](C)/C=C/C=C/C=C/C=C/C=C/C=C/C=C/[C@H](O[C@@H]2O[C@H](C)[C@@H](O)[C@H](N)[C@@H]2O)C[C@@H]2O[C@](O)(C[C@@H](O)C[C@@H](O)[C@H](O)CC[C@@H](O)C[C@@H](O)CC(=O)O[C@H]1C)C[C@H](O)[C@H]2C(=O)O [AMPHOTERICIN B]	–	–	0.4	0.0138	clearance (clinical [10]): 0.46 mL/min/kg
CN1[C@@H]2CC[C@H]1C[C@@H](OC(=O)C(CO)c1ccccc1)C2 (stereo partly specified) [ATROPINE]	0.59	0.86	–	–	Fa (Homo sapiens [4]): 0.98
GENTAMICIN	–	–	0.3	–	Fu (Plasma): 1

Molecule	Fg (Homo sapiens [1])	Fh (Homo sapiens [3])	CL (Homo sapiens [5]) [mL/min/kg]	CL renal (clinical [9]) [mL/min/kg]	also measured
Nc1ccc(S(=O)(=O)Nc2ncccn2)cc1 [SULFADIAZINE]	1.01	0.99	0.2	0.3	F_fraction (Homo sapiens [2]): 0.85; Fa (Homo sapiens [4]): 0.85
CC1=C(C(=O)O)N2C(=O)[C@@H](NC(=O)[C@H](N)c3ccccc3)[C@H]2SC1 [CEPHALEXIN ANHYDROUS]	0.91	–	–	–	–
CCCCCN(CCCOC)C(=O)C(CCC(=O)O)NC(=O)c1ccc(Cl)c(Cl)c1 (stereo unspecified) [LOXIGLUMIDE]	–	–	1	0.022	clearance (clinical [10]): 1 mL/min/kg
Cc1nnc2n1-c1ccc(Cl)cc1C(c1ccccc1)=NC2 [ALPRAZOLAM]	–	–	0.6	0.1	Vd [8]: 0.8 L/kg
c1ccc2c(c1)OCC(C1=NCCN1)O2 (stereo unspecified) [IDAZOXAN]	–	–	10	–	clearance (clinical [10]): 10 mL/min/kg
CC(C)NCC(O)COc1ccc(CC(N)=O)cc1 (stereo unspecified) [ATENOLOL]	1	1	–	–	–
C[C@@H](O)[C@H]1C(=O)N2C(C(=O)O)=C(SCCN=CN)C[C@H]12 [IMIPENEM ANHYDROUS]	–	–	1.5	1.5	clearance (clinical [10]): 3 mL/min/kg
CNC(=O)Oc1ccc2c(c1)[C@]1(C)CCN(C)[C@@H]1N2C [PHYSOSTIGMINE]	–	–	5.5	16.5	F_fraction (Homo sapiens [2]): 0.01; clearance (clinical [10]): 22 mL/min/kg; Vd [8]: 0.66 L/kg
Cc1ncc([N+](=O)[O-])n1CCO [METRONIDAZOLE]	–	–	0.7	0.2	Vd [8]: 0.4 L/kg
Nc1nnc(-c2cccc(Cl)c2Cl)c(N)n1 [LAMOTRIGINE]	–	–	0.6	0.042	F_fraction (Homo sapiens [2]): 0.98; clearance (clinical [10]): 0.6 mL/min/kg
CCCCC(=O)N(Cc1ccc(-c2ccccc2-c2nnn[nH]2)cc1)[C@H](C(=O)O)C(C)C	–	–	0.3	0.1	Fu (Plasma): 0.04
COCc1c(C(C)C)nc(C(C)C)c(/C=C/[C@@H](O)C[C@@H](O)CC(=O)O)c1-c1ccc(F)cc1 [CERIVASTATIN]	–	–	2.9	–	CL_renal (Homo sapiens [6]): 0 mL/min/kg
CN1CCC[C@H]1c1cccnc1 [NICOTINE]	0.86	0.35	15	–	F_fraction (Homo sapiens [2]): 0.3; Fa (Homo sapiens [4]): 1
O=P1(N(CCCl)CCCl)NCCCO1 (stereo unspecified) [CYCLOPHOSPHAMIDE ANHYDROUS]	0.86	0.96	1	0.1	F_fraction (Homo sapiens [2]): 0.74; Fa (Homo sapiens [4]): 0.9
CCOC(=O)C1(c2ccccc2)CCC=CC1N(C)C (stereo unspecified) [TILIDINE]	–	–	15.7	0.3	fraction unbound (Homo sapiens [7]): 0.21; Vd [8]: 4 L/kg
CC(C)N(CCC(C(N)=O)(c1ccccc1)c1ccccn1)C(C)C (stereo unspecified) [DISOPYRAMIDE]	–	–	0.4	–	Fu (Plasma): 0.16
COc1ccnc(C[S+]([O-])c2nc3ccc(OC(F)F)cc3[nH]2)c1OC (stereo unspecified) [PANTOPRAZOLE]	–	–	2.2	–	Vdss (Homo sapiens [11]): 6.3 L/kg
O=C1Cc2cc(CCN3CCN(c4nsc5ccccc45)CC3)c(Cl)cc2N1 [ZIPRASIDONE]	–	–	5	0.1	Vd [8]: 1 L/kg
CCCc1cc(=O)[nH]c(=S)[nH]1 [PROPYLTHIOURACIL]	0.97	0.87	3.1	–	Fu (Plasma): 0.18
Cc1onc(-c2ccccc2Cl)c1C(=O)N[C@@H]1C(=O)N2[C@@H]1SC(C)(C)[C@@H]2C(=O)O [CLOXACILLIN]	–	–	0.6	1	clearance (clinical [10]): 1.6 mL/min/kg
CN/C(=N/CCSCc1nc[nH]c1C)NC#N [CIMETIDINE]	–	0.99	0.2	–	F_fraction (Homo sapiens [2]): 0.68; Fa (Homo sapiens [4]): 0.68
COc1ccc(Cl)cc1C(=O)NCCc1ccc(S(=O)(=O)NC(=O)NC2CCCCC2)cc1 [GLYBURIDE]	–	–	0.8	–	Fu (Plasma): 0.021; Vd [8]: 0.08 L/kg
C[C@]12C=CC(=O)C=C1CC[C@@H]1[C@@H]2[C@@H](O)C[C@@]2(C)[C@H]1CC[C@]2(O)C(=O)CO [PREDNISOLONE]	–	–	2.3	–	Fu (Plasma): 0.25
O=C1NCC2(CCN(CCc3ccccc3)CC2)O1 [FENSPIRIDE]	–	–	0.8	1.8	Vd [8]: 3 L/kg
CC(C)(C)NCC(O)COc1cccc2c1CC(O)C(O)C2 (stereo unspecified) [NADOLOL]	–	–	1.1	–	Fu (Plasma): 0.14
Cc1cccc(C)c1NC(=O)NCCCNC(C)C	–	–	2.2	–	fraction unbound (Homo sapiens [7]): 0.86
